Experimental findings from patent publication US8785459B2, “Quinazoline compounds as kinase inhibitors” (Development Center for Biotechnology, priority 2011, dated 2014) are described below.

One assay concerns the target Cdk1 kinase (Homo sapiens (Human), UniProt P06493). Nature of the assay: CDK1 kinase assay. Type of assay: biochemical. As for the experimental part: Inhibition of Cdk1 kinase activity by compounds disclosed herein was quantified by measuring the amount of [^33P] incorporated into the substrate in the presence of a test compound. Briefly, a reaction mixture of 25 μL final volume containing 5 ng of Cdk1 kinase (Cdk1 kinase domain alone, Millipore), 3 μg of the substrate [Histone H1], kinase reaction buffer (10 mM MOPS pH 7.0, 0.3 mM EDTA, 0.5% glycerol, 0.001% Brij-35, 0.1 mg/ml BSA, 10 μM ATP, 0.1 μCi per well [^33P]-γ-ATP (2,500-3,000 Ci/mmol)), and a test compound (100 nM, diluted with 4% DMSO) or DMSO (as the control) was incubated at 30° C. for 30 minutes. The reaction was stopped by adding 5 μL of 3% phosphoric acid solution. The resultant reaction solution was then harvested onto a filter plate (UniFilter-96 GF/B, PerkinElmer), washed 20 times for 5 min with d.d. H2O, and followed by the addition of 30 μL of MicroScint™-20 Cocktail (PerkinElmer). The radioactivity retained on the filter membrane was measured by TopCount™ scintillation detector (PerkinElmer). The results were analyzed by using linear regression software (GraphPad Prism™ 4; GraphPad Software Inc.).

Another assay concerns A375. Kind of assay: Anti-proliferative activity, CellTiter-96 assay, A375. Type of assay: cell-based. The following applies: Homo sapiens, A-375, A375 cells, 72 hours incubation. A digest of the protocol:
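Cells in DMEM with 10% FCS at 37° C., 5% CO2, plated at 2000 cells/well for 24 h, then exposed to graded compound concentrations for 72 h. CellTiter-96 Aqueous One reagent added for 4.0 h; viability read as absorbance at 490 nm.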

Another assay addresses B-Raf (V600E) (Homo sapiens (Human), UniProt P15056, V600E). Nature of the assay: Raf kinase assay (B-Raf (V600E)), [33P] incorporation into MEK1(K97R). Type of assay: biochemical. The procedure, abridged: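 Recombinant C-Raf (2 ng) or B-Raf or B-Raf V600E (5 ng each) phosphorylated 500 ng MEK1(K97R) with 8 μM ATP plus [33P]ATP, pH 7.5, 30 min at 30 °C. Filter-captured 33P counted. IC50 from 3-fold compound dilutions run in duplicate.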

Another assay has as its target FLT3 kinase (Homo sapiens (Human), UniProt P36888). Nature of the assay: FLT3 kinase assay. It is filed as biochemical. On the procedure:
Inhibition of FLT3 kinase activity by compounds disclosed herein was quantified by measuring the amount of [^33P] incorporated into the substrate in the presence of a test compound. Briefly, a reaction mixture of 25 μL final volume containing 5 ng of Flt3 kinase (obtained by purifying recombinant N-terminal 6×His-tagged Flt3 kinase domain construct expressed from baculovirus), 5 μg of the substrate (Poly(Glu-Tyr, 4:1, Sigma)), kinase reaction buffer (20 mM MOPS pH 7.0, 1 mM EDTA, 5% glycerol, 0.01% Brij-35, 0.1% β-mercaptoethanol, 1 mg/mL BSA, 100 μM ATP, 0.1 μCi per well [^33P]-γ-ATP (2,500-3,000 Ci/mmol)), and a test compound (100 nM, diluted with 4% DMSO) or DMSO (as the control) was incubated at 30° C. for 30 minutes. The reaction was stopped by adding 5 μL of 3% phosphoric acid solution. The resultant reaction solution was then harvested onto a filter plate (UniFilter-96 GF/B, PerkinElmer), washed 20 times for 5 min with d.d. H2O, and followed by the addition of 30 μL of MicroScint™-20 Cocktail (PerkinElmer). The plate was then sealed and counted using a TopCount™ scintillation detector (PerkinElmer). IC50 value is defined as the concentration of the test compound which achieves a half-maximal inhibition of the kinase activity.

Sequence of B-Raf (V600E) (P15056 whole entry V600E): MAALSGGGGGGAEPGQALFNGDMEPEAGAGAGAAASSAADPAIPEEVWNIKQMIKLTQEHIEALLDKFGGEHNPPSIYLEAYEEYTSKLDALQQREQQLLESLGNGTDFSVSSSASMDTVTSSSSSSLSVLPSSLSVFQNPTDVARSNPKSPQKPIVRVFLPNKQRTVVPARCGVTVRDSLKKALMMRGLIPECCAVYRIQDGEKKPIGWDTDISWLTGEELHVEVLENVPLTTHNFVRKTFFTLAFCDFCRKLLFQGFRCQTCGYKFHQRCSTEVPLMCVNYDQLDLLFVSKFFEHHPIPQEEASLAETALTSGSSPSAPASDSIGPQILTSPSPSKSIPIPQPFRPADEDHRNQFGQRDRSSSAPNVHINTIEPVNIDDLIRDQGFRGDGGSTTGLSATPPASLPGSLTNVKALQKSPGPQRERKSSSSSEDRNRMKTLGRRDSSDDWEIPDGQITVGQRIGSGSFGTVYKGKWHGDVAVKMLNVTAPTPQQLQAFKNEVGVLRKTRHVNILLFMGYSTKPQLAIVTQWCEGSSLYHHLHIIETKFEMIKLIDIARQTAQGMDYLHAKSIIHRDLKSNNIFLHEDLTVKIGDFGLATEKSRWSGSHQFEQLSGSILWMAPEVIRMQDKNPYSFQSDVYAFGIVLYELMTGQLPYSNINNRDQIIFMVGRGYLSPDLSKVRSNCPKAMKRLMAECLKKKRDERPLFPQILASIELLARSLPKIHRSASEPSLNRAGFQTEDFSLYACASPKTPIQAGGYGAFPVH
Sequence of FLT3 kinase (P36888 610-943): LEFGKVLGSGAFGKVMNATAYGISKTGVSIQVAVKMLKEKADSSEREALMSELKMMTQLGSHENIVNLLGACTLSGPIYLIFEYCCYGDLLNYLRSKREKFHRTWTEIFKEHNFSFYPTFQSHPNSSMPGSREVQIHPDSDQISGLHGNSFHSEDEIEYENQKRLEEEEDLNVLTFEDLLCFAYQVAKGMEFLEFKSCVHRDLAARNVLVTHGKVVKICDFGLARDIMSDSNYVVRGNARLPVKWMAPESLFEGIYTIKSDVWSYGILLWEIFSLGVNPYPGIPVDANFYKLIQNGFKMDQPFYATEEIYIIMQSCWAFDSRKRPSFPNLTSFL
Sequence of Cdk1 kinase (P06493 4-287): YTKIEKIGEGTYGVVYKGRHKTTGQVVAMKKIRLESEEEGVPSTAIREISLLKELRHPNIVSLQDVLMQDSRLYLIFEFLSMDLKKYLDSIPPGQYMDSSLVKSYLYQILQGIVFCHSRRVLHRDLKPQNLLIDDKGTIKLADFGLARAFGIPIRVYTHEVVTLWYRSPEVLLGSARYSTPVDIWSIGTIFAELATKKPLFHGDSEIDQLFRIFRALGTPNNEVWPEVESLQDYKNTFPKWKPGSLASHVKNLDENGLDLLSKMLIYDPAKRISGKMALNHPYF
Sequence of Cdk1 kinase (P14635 whole entry partner, the tested form may be a part): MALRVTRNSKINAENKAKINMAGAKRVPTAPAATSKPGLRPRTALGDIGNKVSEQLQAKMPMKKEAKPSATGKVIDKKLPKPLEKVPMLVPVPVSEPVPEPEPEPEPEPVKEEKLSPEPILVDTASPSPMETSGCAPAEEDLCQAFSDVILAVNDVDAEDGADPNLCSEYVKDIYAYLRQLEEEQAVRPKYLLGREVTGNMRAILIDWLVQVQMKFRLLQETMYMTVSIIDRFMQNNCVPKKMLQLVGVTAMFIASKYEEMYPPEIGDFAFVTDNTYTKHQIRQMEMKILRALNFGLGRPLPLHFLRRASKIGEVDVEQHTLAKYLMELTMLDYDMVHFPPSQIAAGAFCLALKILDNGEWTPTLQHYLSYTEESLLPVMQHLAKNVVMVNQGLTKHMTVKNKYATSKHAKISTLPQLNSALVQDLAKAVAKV

Usually inhibition stands for the change of the read-out against control, counted positive when it falls. Read a high inhibition as a response far below the control. What is called IC50 is the point on the concentration scale where inhibition reaches its midpoint. Read a low IC50 as higher potency. With `COc1cc(-c2ccc3ncnc(Nc4cccc(O)c4)c3c2)ccc1O` [Compound 8, 4-(4-(3-hydroxyphenylamino)quinazolin-6-yl)-2-methoxyphenol], the inhibition at 1 µM against Cdk1 kinase was 88%. The half-inhibitory concentration (IC50) in the assay on A375 turned out to be 0.9 ± 0.2 µM; against B-Raf (V600E), 37.4 nM; against FLT3 kinase, 271 nM.

`COc1cc(-c2ccc3ncnc(Nc4cc(O)ccc4F)c3c2)ccc1O` [Compound 58, 4-(4-(2-fluoro-5-hydroxyphenylamino)quinazolin-6-yl)-2-methoxyphenol] yielded an inhibition at 1 µM on Cdk1 kinase of 78%. Besides, the values for the IC50 in the assay on A375, against B-Raf (V600E) and against FLT3 kinase were 0.5 ± 0.1 µM, 23.2 nM and 137 nM, respectively.
